Converted amounts (≈) assume the structure as drawn. “And” between values parts separate entries of the source, which are not always exact repeats. Equal entries are not always repeated. “Also recorded” adds a separate entry of the source. Where two headings read alike, the source gives them in different places.
Legend:
[1] = test system: P. falciparum 3D7 strain (Pf3D7); assay: Antiplasmodial activity against P. falciparum 3D7 blood-stage parasites (SYBR Green, 72 h); assay type: cell-based, Plasmodium falciparum
[2] = eLogD at pH 7.4, miniaturized shake flask method; assay type: physicochemical; settings: for logD at 2 h: 1-octanol/PBS (1:1, v/v), pH 7.4, pH 7.4, miniaturized shake flask method
Method: eLogD at pH 7.4 was determined using a miniaturized shake flask method. A solution of a presaturated mixture of 1-octanol and phosphate-buffered saline (PBS) (1:1, v/v) and the test compound (75 μM) was incubated at 25 °C with constant shaking (850 rpm) for 2h. After incubation, the organic and aqueous phases were separated, and samples of each phase were transferred to a plate for dilution. […] The samples were quantitated using LC-MS/MS. The experiment was carried out in duplicate. Propranolol, Amitriptyline, and Midazolam were used as reference standards.

[3] = Kinetic solubility at pH 7.4; assay type: physicochemical; settings: phosphate-buffered saline, 25 °C, pH 7.4, aqueous buffer, kinetic from dmso stock; read-out: Kinetic solubility (Sol)
Method: Kinetic solubility assay was performed using UV–vis detection. […] The samples were filtered using a multiscreen solubility filter plate. The filtrate was diluted by 50% with MeCN. A five-point linearity curve was prepared in PBS/MeCN (1:1, v/v) at 200, 150, 75, 25, and 2.5 μM. Blank, linearity, and test samples (n = 2) were transferred to a UV-readable plate, and the plate was scanned for absorbance. Best-fit calibration curves were constructed using the calibration standards and used to determine the test sample solubility. The experiment was carried out in duplicate. Diethylstilbestrol, Haloperidol, and Diclofenac Sodium were used as reference standards.

Rat hepatocyte stability = assay type: in vitro ADME; settings: for R Heps (Clint): rat hepatocyte stability
Method: The reaction was terminated with the addition of ice-cold MeCN at designated time points. The samples were then centrifuged (4200 rpm) for 20 min at 20 °C, and the supernatant was half diluted in water and then analyzed using LCMS/MS. The % parent compound remaining, half-life (t 1/2), and clearance (CLint) were calculated using standard methodology. The experiment was carried out in duplicate. Diltiazem, 7-Ethoxy Coumarin, Propranolol, and Midazolam were used as reference standards.

[4] = Human liver microsome stability; assay type: in vitro ADME; settings: human microsomal intrinsic clearance; for microsomal CLint at 1 μM: human, pooled human liver microsomes, read-out: hMics, human microsome Clint
Method: A solution of the test compounds in phosphate buffer solution (1 μM) was incubated in pooled human or mouse liver microsomes (0.5 mg/mL) for 0, 5, 20, 30, 45, and 60 min at 37 °C in the presence and absence of an NADPH regeneration system (NRS). The tests were conducted by […], India. The reaction was terminated with the addition of ice-cold acetonitrile, containing a […] standard, at designated time points. The sample was centrifuged (4200g) for 20 min at 20 °C and the supernatant was diluted by half in water and then analyzed by LC-MS/MS. The % parent compound remaining, half-life (t 1/2) and clearance (CLint) were calculated using standard methodology. The experiment was carried out in duplicate. Verapamil, diltiazem, phenacetin, and imipramine were used as reference standards.

[5] = Resazurin assay for cytotoxicity in HepG2 cells; assay type: cell-based, human; settings: human, HepG2 cells; HepG2 cell line, 72 h, resazurin
Method: (§1) HepG2 cells were trypsinized, counted, and distributed in a 96-well plate at a density of 30,000 cells per well (180 μL). The plate was incubated at 37 °C and 5% CO2 for 24 h. Following incubation, 20 μL of serial dilutions of the tested compounds were added to the wells, with concentrations ranging from 30 to 0.47 μM. The plate was incubated for an additional 72 h at 37 °C and 5% CO2. Untreated cells served as positive controls, while wells containing only medium were used as negative controls. Postincubation, microscopy was employed to determine the highest compound concentration for treatment results. […] Concentration–response curves were generated, and half-maximal inhibitory concentration (CC50) values were determined using nonlinear regression analysis.

P. falciparum K1 strain = assay: Antiplasmodial activity against resistant P. falciparum K1; assay type: cell-based; settings: Plasmodium falciparum, 3D7 / K1; resistant K1, in parallel with 3D7; read-out: IC50^K1 ± SD
P. falciparum Dd2 strain = assay: Antiplasmodial activity against resistant P. falciparum Dd2; assay type: cell-based; settings: Plasmodium falciparum, 3D7 / DD2; resistant Dd2, in parallel with 3D7; read-out: IC50^Dd2 ± SD
[6] = test system: P. falciparum NF54 strain; assay: Antiplasmodial activity against P. falciparum NF54 (SYBR Green, 72 h); assay type: cell-based, Plasmodium falciparum; settings: read-out: NF54-IC50
HepG2 cells = assay: Resazurin assay for cytotoxicity in HepG2 cells; assay type: cell-based, human; settings: Homo sapiens, HepG2
Method: as §1

P. falciparum = assay: Parasite reduction ratio (PRR) assay, in vitro rate of kill; assay type: cell-based, Plasmodium falciparum
Description: This library was designed to maximize chemical diversity and novelty of compounds with physicochemical properties consistent with potential for further development.

[7] = test system: P. falciparum (3D7 strain) digestive vacuole; assay: Digestive vacuole homeostasis, acridine orange fluorescence; assay type: cell-based, Plasmodium falciparum; settings: 10 μM, 3 min treatment, isolated parasites
Method: The sample was incubated for 40 min at 37 °C. […] Fluorescence was measured in a Hitachi F-7000 fluorimeter (Tokyo, Japan) by continuous measurement of the fluorescence (λex = 488 nm; λem = 560 nm) at 37 °C. Experiments were performed in triplicate.

[8] = test system: P. falciparum 3D7 (chloroquine-sensitive); assay: Effect of verapamil on inhibitory activity in P. falciparum 3D7; assay type: cell-based; settings: Plasmodium falciparum
[9] = test system: P. falciparum Dd2 (chloroquine resistance); assay: Effect of verapamil on inhibitory activity in P. falciparum Dd2; assay type: cell-based; settings: Plasmodium falciparum
[10] = test system: P. vivax field isolates from Brazil; assay: Ex vivo drug susceptibility of P. vivax field isolates; assay type: cell-based; settings: Plasmodium vivax; for IC50: read-out: median IC50 (range), P. vivax (9); for EC50: read-out: median EC50 against P. vivax field isolates
[11] = test system: P. falciparum field isolates from Brazil; assay: Ex vivo drug susceptibility of P. falciparum field isolates; assay type: cell-based, Plasmodium falciparum; settings: Plasmodium falciparum; for IC50: read-out: median IC50 (range), P. falciparum (7); for EC50: read-out: median EC50 against P. falciparum isolates
P. falciparum 3D7 clone = assay: Ex vivo schizont maturation assay, 3D7 laboratory strain control; assay type: cell-based; settings: Plasmodium falciparum
[12] = test system: synchronized P. falciparum parasites (3D7 strain); assay: P. falciparum asexual blood stage-specificity assay (8 h exposures); assay type: cell-based, Plasmodium falciparum
[13] = Plasmodium falciparum, 3D7, 72 h, 3D7 strain, 72 h, SYBR Green, read-out: Pf3D7-IC50
[14] = Plasmodium falciparum, 3D7 / DD2, sensitive 3D7, in parallel with K1 and Dd2, read-out: IC50^3D7 ± SD
[15] = 3D7 strain, 72 h, SYBR Green, read-out: Pf3D7-IC50

Row | Structure (SMILES) | IC50 [1, 13] | logD at 2 h [2] | solubility kinetic at 2 h [3] | R Heps (Clint) (Rat hepatocyte stability) | microsomal CLint at 1 μM [4] | CC50 at 72 h [5] | IC50 [1, 14] | IC50 (P. falciparum K1 strain) | IC50 (P. falciparum Dd2 strain) | also measured
1 | O=C(c1cc2cc(Cl)ccc2[nH]1)N(Cc1cccnc1)C[C@H]1CCNC1 [6a (S), 5-Chloro-N-(3-pyridylmethyl)-N-[[(3S)-pyrrolidin-3-yl]methyl]-1H-indole-2-carboxamide] | 2000 ± 400 nM | 0.7 | 196 µM (≈ 72.3 µg/mL) | 12 μL/min/10^6 | 3 µL/min/mg | > 30000 nM | – | – | – | –
2 | CN1CCC(N(Cc2cccnc2)C(=O)c2cc3cc(Cl)ccc3[nH]2)CC1 [Compound 5t, 5-Chloro-N-(1-methylpiperidin-4-yl)-N-(pyridin-3-ylmethyl)-1H-indole-2-carboxamide] | 370 ± 40 nM | 2.3 | > 200 µM | 50 μL/min/10^6 | 36 µL/min/mg | > 30000 nM | 300 ± 100 nM | 500 ± 300 nM | 700 ± 200 nM | –
3 | O=C(c1cc2cc(Cl)ccc2[nH]1)N(Cc1cccnc1)CC1CCNC1 (stereo not drawn) [Compound 6a, 5-Chloro-N-(pyridin-3-ylmethyl)-N-(pyrrolidin-3-ylmethyl)-1H-indole-2-carboxamide] | 1390 nM | 0.62 | 193 µM (≈ 71.2 µg/mL) | 15 μL/min/10^6 | 4.6 µL/min/mg | > 30000 nM | – | 6400 ± 100 nM | 9100 ± 100 nM | IC50 [1, 15]: 1400 nM and 1000 nM; IC50 ([6]; NF54 strain): 800 ± 400 nM; IC50 ([6]; Plasmodium falciparum, NF54, NF54 strain): 840 nM; LogD ([2]; pH 7.4, miniaturized shake flask method): 0.6; hepatocyte CLint at 1 μM (Rat hepatocyte stability; pooled rat hepatocytes, rat hepatocyte intrinsic clearance, read-out: Rat hep Clint): 14.6 µL/min/1e6 cells; hMics, human microsome Clint [4]: 5 µL/min/mg; IC50 (HepG2 cells): > 20000 nM; Parasite Reduction Rate (PRR), rate of kill (P. falciparum): as fast as that of CQ; also recorded: Fast-acting inhibitor
4 | COc1ccc2[nH]c(C(=O)N(Cc3cccnc3)CC3CCNC3)cc2c1 (stereo not drawn) [Compound 6d, 5-Methoxy-N-(3-pyridylmethyl)-N-(pyrrolidin-3-ylmethyl)-1H-indole-2-carboxamide] | > 10000 nM | -0.4 | > 1000 µM | 4 μL/min/10^6 | 7 µL/min/mg | – | – | – | – | effect on digestive vacuole H+ homeostasis (acridine orange fluorescence) [7]: strong interaction
5 | Cl.O=C(c1cc2cc(Cl)ccc2[nH]1)N(Cc1cccnc1)C1CCNCC1 [Compound 6x, 5-Chloro-N-(piperidin-4-yl)-N-(pyridin-3-ylmethyl)-1H-indole-2-carboxamide hydrochloride] | ~300 nM | 1 | 196 µM | 2 μL/min/10^6 | 3 µL/min/mg | > 30000 nM | 400 ± 300 nM | 5200 ± 200 nM | 4700 ± 800 nM | IC50 [1, 15]: 330 ± 80 nM; IC50 ([8]; 3D7, verapamil experiment, read-out: IC50 in 3D7 strain): ~150 nM; IC50 ([8]; read-out: IC50^3D7 (10 μM VP), 3D7, presence of 10 μM verapamil): 214 nM; IC50 ([8]; 3D7, absence of verapamil, read-out: IC50^3D7 (without VP)): 148 nM; IC50 ([9]; read-out: IC50^Dd2 (10 μM VP), Dd2, presence of 10 μM verapamil): 560 nM; IC50 ([9]; Dd2, absence of verapamil, read-out: IC50^Dd2 (without VP)): 2940 nM
6 | O=C(c1cc2cc(C(F)(F)F)ccc2[nH]1)N(Cc1cccnc1)C1CCNCC1 [Compound 6y, N-(Piperidin-4-yl)-N-(pyridin-3-ylmethyl)-5-(trifluoromethyl)-1H-indole-2-carboxamide] | 220 ± 90 nM | 1.4 | > 200 µM | 4 μL/min/10^6 | 17 µL/min/mg | > 30000 nM | 300 ± 100 nM | 2100 ± 200 nM | 1600 ± 300 nM | –
7 | C[C@H]1[C@H](OC(=O)CCC(=O)O)O[C@@H]2O[C@@]3(C)CC[C@H]4[C@H](C)CC[C@@H]1[C@@]24OO3 [artesunate] | – | – | – | – | – | – | – | – | – | IC50 ([10]; 9 clinical isolates, ex vivo): 1 nM; EC50 ([10]; ex vivo): 1 nM; IC50 ([11]; 7 clinical isolates, ex vivo): 0.6 nM; EC50 ([11]; ex vivo): 0.6 nM; IC50 (P. falciparum 3D7 clone; ex vivo assay conditions, 3D7 control, read-out: P. falciparum 3D7 IC50): 8 nM
8 | CCN(CC)CCCC(C)Nc1ccnc2cc(Cl)ccc12 (stereo not drawn) [chloroquine, reference compound] | – | – | – | – | – | – | – | – | – | IC50 ([8]; 3D7, read-out: IC50^3D7 (without VP)): 39.8 nM; IC50 ([8]; 3D7, read-out: IC50 in 3D7 strain): 40 to 50 nM; IC50 ([9]; DD2, read-out: IC50^Dd2 (without VP)): 655 nM; EC50 [10]: 295 nM; IC50 [10]: 295 nM; EC50 [11]: 1200 nM; IC50 [11]: 1200 nM; IC50 (P. falciparum 3D7 clone; 3D7, read-out: P. falciparum 3D7 IC50): 12 nM; timing of peak activity (lowest IC50^8h) in asexual blood stages [12]: peak activity at ring and trophozoite stages

From article PMC12531871, “Indole-2-carboxamides Optimization for Antiplasmodial Activity” (ACS Bio & Med Chem Au, 2025)
